# Read-outs that look alike come from different tables or passages of the source. Marks after values point to notes of the source that are not given here.
# Key:
# [1] = target: KDR (Homo sapiens, UniProt P35968); assay: Tyrosine kinase inhibition; type: biochemical
# [2] = target: LCK (Homo sapiens, UniProt P06239); assay: Tyrosine kinase inhibition; type: biochemical
# [3] = target: EphA1 (Homo sapiens, UniProt P21709); assay: Tyrosine kinase inhibition; type: biochemical
# [4] = test system: CFPAC-1 cells; assay: Tumor cell proliferation in vitro; type: cell-based
# [5] = test system: A498 cells; assay: Tumor cell proliferation in vitro; type: cell-based
# [6] = test system: 8305C cells; assay: Tumor cell proliferation in vitro; type: cell-based
# [7] = test system: ECA-109 cells; assay: Tumor cell proliferation in vitro; type: cell-based, human
# [8] = test system: HCT116 cells; assay: Tumor cell proliferation in vitro; type: cell-based
# [9] = test system: TT cells; assay: Tumor cell proliferation in vitro; type: cell-based, human
# [10] = test system: HT29 cells; assay: Tumor cell proliferation in vitro; type: cell-based
# [11] = test system: BEL-7402 cells; assay: Tumor cell proliferation in vitro; type: cell-based; settings: BEL-7402
# [12] = test system: MDA-MB-231 cells; assay: Tumor cell proliferation in vitro; type: cell-based
# [13] = test system: matrigel angiogenesis; type: in vivo, mouse; settings: induced by VEGF and FGF
# [14] = test system: human esophageal cancer ECA-109 tumors; assay: ECA-109 tumors in nude mice; type: in vivo
# [15] = test system: EGFR signaling in tumor tissue; assay: PK/PD in plasma and tumor tissue of tumor-bearing mice; type: in vivo; settings: after a single dose, 25 and 50 mg/kg
# [16] = Rat plasma kinetics; type: in vivo
# [17] = Plasma protein binding; type: in vitro ADME; settings: mice
# [18] = Plasma protein binding; type: in vitro ADME; settings: monkeys
# [19] = Tissue distribution in rats; type: in vivo; settings: for time of distribution peak: intragastric
# [20] = Safety pharmacology: respiratory function and neurological behavior; type: in vivo, rats; settings: single oral dose 30, 100, and 300 mg/kg
# [21] = 28-day repeated dose toxicity; type: in vivo, Beagle dogs
# [22] = target: PDGFRβ (Homo sapiens, UniProt P09619); assay: Tyrosine kinase inhibition; type: biochemical
# [23] = target: FLT3 (Homo sapiens, UniProt P36888); assay: Tyrosine kinase inhibition; type: biochemical
# [24] = target: RON (Homo sapiens, UniProt Q04912); assay: Tyrosine kinase inhibition; type: biochemical
# [25] = target: BTK (Homo sapiens, UniProt Q06187); assay: Tyrosine kinase inhibition; type: biochemical
# [26] = target: TrkA (Homo sapiens, UniProt P04629); assay: Tyrosine kinase inhibition; type: biochemical
# [27] = target: ABL1 (Homo sapiens, UniProt P00519); assay: Tyrosine kinase inhibition; type: biochemical
# [28] = target: EGFR(T790M /L828R) (Homo sapiens, UniProt P00533, T790M); assay: Tyrosine kinase inhibition; type: biochemical
# [29] = target: C-KIT (Homo sapiens, UniProt P10721); assay: Tyrosine kinase inhibition; type: biochemical
# [30] = test system: Q-T interval; settings: single oral dose 5, 10, and 15 mg/kg
# [31] = Metabolites in plasma; settings: monkeys
# TrkA, sequence (P04629 33-796): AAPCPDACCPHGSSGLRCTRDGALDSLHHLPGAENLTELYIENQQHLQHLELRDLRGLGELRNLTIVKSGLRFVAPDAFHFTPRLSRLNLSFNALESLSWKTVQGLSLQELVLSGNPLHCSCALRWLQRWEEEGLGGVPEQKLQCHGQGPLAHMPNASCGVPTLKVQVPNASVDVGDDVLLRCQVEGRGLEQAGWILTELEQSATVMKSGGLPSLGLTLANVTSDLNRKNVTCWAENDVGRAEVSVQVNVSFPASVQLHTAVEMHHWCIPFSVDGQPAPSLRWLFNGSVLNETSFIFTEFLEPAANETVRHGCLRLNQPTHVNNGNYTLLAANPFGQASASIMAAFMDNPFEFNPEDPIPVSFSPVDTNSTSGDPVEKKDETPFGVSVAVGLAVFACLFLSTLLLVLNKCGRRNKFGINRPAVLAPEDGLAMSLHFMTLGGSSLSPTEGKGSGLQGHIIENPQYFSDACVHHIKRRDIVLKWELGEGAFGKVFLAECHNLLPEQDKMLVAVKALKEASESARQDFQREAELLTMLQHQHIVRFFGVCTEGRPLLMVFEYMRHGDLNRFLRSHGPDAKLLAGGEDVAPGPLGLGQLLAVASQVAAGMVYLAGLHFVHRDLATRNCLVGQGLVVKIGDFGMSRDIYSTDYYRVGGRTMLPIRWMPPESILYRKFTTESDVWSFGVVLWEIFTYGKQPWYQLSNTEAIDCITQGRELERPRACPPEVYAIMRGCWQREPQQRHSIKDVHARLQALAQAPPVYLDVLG
# EphA1, sequence (P21709 26-976): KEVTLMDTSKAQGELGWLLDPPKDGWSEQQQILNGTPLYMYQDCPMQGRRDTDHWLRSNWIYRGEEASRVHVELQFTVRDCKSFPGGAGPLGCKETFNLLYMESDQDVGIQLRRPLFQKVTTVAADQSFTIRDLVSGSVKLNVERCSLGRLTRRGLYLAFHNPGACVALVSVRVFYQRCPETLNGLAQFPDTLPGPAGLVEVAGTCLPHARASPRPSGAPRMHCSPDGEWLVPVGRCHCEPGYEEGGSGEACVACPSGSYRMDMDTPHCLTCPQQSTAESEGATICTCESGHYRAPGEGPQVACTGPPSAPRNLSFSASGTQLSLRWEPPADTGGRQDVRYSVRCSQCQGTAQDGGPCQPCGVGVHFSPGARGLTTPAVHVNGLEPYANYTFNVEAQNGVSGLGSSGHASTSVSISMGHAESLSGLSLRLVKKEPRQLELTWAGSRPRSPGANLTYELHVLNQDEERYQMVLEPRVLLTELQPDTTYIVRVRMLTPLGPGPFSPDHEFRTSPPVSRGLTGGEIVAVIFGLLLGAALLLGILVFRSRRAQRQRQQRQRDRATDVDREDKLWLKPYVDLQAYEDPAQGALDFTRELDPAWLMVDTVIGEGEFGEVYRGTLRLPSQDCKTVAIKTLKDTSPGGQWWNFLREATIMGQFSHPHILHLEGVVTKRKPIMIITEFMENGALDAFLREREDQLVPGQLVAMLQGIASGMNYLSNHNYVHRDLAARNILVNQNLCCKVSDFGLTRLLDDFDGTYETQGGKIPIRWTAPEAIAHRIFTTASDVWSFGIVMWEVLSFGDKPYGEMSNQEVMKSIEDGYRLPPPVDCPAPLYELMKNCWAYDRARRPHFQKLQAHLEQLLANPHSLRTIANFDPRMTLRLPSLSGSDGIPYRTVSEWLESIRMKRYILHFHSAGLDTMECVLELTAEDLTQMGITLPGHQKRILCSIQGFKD
# C-KIT, sequence (P10721 26-976): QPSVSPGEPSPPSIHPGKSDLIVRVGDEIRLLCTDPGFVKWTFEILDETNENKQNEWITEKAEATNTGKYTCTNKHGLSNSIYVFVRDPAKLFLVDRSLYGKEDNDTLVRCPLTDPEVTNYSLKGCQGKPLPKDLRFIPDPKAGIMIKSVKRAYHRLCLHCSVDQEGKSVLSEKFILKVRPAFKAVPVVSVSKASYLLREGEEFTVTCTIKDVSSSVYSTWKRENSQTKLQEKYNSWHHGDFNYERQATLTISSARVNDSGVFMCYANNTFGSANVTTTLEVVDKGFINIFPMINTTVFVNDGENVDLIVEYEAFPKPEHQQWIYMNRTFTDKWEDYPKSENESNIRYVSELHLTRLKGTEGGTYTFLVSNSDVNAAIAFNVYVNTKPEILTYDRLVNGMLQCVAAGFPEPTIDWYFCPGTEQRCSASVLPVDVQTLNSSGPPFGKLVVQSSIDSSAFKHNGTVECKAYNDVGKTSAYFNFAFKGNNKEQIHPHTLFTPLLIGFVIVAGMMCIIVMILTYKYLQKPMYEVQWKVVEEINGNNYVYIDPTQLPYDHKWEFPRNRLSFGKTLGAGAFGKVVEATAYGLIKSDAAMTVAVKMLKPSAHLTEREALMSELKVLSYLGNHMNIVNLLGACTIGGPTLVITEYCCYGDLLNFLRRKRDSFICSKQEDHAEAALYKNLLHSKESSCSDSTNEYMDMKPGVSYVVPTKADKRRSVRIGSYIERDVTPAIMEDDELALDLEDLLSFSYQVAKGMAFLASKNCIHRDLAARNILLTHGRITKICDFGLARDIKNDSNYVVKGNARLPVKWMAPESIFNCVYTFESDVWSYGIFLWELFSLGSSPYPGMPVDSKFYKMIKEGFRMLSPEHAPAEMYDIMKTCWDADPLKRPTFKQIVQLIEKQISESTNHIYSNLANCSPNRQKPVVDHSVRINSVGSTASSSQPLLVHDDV
# PDGFRβ, sequence (P09619 33-1106): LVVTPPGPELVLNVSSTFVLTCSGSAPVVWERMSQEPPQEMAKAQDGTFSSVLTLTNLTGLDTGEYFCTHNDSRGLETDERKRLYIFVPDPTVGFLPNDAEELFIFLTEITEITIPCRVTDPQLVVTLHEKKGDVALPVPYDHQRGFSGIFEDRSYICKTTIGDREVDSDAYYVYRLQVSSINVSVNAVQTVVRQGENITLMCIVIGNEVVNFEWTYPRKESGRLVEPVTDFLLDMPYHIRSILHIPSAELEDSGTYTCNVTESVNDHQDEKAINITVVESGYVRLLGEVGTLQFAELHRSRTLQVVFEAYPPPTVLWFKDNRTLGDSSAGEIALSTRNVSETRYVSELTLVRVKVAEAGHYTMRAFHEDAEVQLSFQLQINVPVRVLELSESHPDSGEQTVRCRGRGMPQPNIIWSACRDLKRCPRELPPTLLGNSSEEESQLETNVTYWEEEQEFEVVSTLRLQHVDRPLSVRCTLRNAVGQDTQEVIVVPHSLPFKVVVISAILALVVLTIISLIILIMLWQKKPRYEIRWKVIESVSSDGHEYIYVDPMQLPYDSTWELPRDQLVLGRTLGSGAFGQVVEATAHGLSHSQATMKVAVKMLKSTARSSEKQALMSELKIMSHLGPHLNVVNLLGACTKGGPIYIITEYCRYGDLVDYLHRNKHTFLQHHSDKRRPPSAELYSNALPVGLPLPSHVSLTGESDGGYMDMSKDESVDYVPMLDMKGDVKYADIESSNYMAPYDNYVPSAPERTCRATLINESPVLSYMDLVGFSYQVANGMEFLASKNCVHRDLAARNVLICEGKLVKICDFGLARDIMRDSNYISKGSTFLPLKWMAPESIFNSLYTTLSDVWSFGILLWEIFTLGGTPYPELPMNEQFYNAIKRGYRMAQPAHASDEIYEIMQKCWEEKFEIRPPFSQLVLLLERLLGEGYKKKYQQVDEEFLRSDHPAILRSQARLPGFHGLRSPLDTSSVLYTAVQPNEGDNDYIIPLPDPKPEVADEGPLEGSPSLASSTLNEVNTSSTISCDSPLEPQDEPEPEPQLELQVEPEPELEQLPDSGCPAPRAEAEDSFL
# LCK, sequence (P06239 whole entry): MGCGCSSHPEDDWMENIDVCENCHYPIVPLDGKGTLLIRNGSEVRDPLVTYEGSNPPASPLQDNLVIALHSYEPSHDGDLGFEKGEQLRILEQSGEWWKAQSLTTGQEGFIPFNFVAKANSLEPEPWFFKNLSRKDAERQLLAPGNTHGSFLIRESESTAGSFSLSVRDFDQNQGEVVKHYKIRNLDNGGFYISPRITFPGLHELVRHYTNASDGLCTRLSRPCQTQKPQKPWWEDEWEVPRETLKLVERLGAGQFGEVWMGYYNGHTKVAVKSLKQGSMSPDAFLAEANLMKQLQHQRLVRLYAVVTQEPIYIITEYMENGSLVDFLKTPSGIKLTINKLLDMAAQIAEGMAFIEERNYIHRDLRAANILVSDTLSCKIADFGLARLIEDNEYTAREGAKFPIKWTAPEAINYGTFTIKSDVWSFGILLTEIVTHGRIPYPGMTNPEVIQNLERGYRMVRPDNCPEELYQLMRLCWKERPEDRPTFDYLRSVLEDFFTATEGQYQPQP
# UniProt P00533, sequence (P00533 695-1210 T790M, form open): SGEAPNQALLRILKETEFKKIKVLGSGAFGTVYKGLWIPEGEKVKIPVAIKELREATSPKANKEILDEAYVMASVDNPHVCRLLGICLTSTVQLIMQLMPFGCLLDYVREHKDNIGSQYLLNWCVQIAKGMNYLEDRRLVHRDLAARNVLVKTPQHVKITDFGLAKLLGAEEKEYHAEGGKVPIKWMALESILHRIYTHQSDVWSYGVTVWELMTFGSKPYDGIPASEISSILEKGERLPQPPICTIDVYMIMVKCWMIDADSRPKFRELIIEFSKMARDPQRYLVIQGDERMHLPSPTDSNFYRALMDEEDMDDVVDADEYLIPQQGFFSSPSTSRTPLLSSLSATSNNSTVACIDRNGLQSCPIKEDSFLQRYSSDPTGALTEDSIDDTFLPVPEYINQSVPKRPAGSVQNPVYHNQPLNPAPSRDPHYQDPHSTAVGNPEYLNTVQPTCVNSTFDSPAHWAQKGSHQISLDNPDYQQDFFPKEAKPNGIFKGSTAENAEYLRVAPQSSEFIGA
smiles,measurement,setting,value
"COc1cc2c(Nc3ccc(Br)cc3F)ncnc2cc1OCCCCN(C)C.Cl.Cl [HA121-28, N-(4-bromo-2-fluorophenyl)-7-(4-(dimethylamino)butoxy)-6-methoxy quinazolin-4-amine dihydrochloride]",IC50,[1],35.7 nM
same,IC50,[2],14 nM
same,IC50,[3],86.9 nM
same,IC50,[4],207 ± 38.3 nM
same,IC50,[5],858 ± 17.9 nM
same,IC50,[6],623 ± 80.3 nM
same,IC50,[7],6663 ± 54.5 nM
same,IC50,[8],1420 ± 236 nM
same,IC50,[9],3830 ± 91.5 nM
same,IC50,[10],5400 ± 813 nM
same,IC50,[11]; read-out: IC50,10000 to 100000 nM
same,IC50,"[11]; read-out: IC50, proliferation",9910 ± 202 nM
same,IC50,[12]; read-out: IC50,10000 to 100000 nM
same,IC50,"[12]; read-out: IC50, proliferation",10300 ± 2010 nM
same,mouse matrigel angiogenesis,[13],able to inhibit
same,RTV ±SD,[14]; 12.5 mg/kg,7.0±2.8
same,T/C,[14]; 12.5 mg/kg,68.6%
same,Terminal Tumor Volume,[14]; 12.5 mg/kg,"1,684.6±1,034.3 mm^3"
same,RTV ±SD,[14]; 25 mg/kg,3.1±1.6
same,T/C,[14]; 25 mg/kg,29.8%
same,Terminal Tumor Volume,[14]; 25 mg/kg,693.5±538.6*^▲ mm^3
same,RTV ±SD,[14]; 50 mg/kg,2.2±0.4
same,T/C,[14]; 50 mg/kg,21.6%
same,Terminal Tumor Volume,[14]; 50 mg/kg,491.8±77.4** mm^3
same,onset of inhibition of EGFR signaling pathway,[15],2 h
same,AUC0-96h,[16]; 7 consecutive days (10 mg/kg),8420 ± 1720 ng·h/mL
same,AUC0-∞,[16]; 7 consecutive days (10 mg/kg),9690 ± 2310 ng·h/mL
same,CL,[16]; 7 consecutive days (10 mg/kg),39.3 ± 6.53 mL/min/kg
same,Cmax,[16]; 7 consecutive days (10 mg/kg),284 ± 56.8 ng/mL
same,MRT0-∞,[16]; 7 consecutive days (10 mg/kg),40.0 ± 7.30 h
same,Tmax,[16]; 7 consecutive days (10 mg/kg),6.00 ± 0.00 h
same,Vd,[16]; 7 consecutive days (10 mg/kg),110 ± 24.9 L/kg
same,t1/2,[16]; 7 consecutive days (10 mg/kg),32.9 ± 7.77 h
same,AUC0-96h,[16]; high dose (20 mg/kg),6460 ± 849 ng·h/mL
same,AUC0-∞,[16]; high dose (20 mg/kg),6760 ± 1040 ng·h/mL
same,CL,[16]; high dose (20 mg/kg),50.3 ± 8.05 mL/min/kg
same,Cmax,[16]; high dose (20 mg/kg),288 ± 38.5 ng/mL
same,MRT0-96h,[16]; high dose (20 mg/kg),22.8 ± 2.85 h
same,MRT0-∞,[16]; high dose (20 mg/kg),27.3 ± 5.24 h
same,Tmax,[16]; high dose (20 mg/kg),5.00 ± 1.55 h
same,Vd,[16]; high dose (20 mg/kg),96.8 ± 8.19 L/kg
same,t1/2,[16]; high dose (20 mg/kg),22.8 ± 5.00 h
same,AUC0-96h,[16]; intravenous (5 mg/kg),1440 ± 214 ng·h/mL
same,AUC0-∞,[16]; intravenous (5 mg/kg),1470 ± 232 ng·h/mL
same,C5min,[16]; intravenous (5 mg/kg),246 ± 43.1 ng/mL
same,CL,[16]; intravenous (5 mg/kg),57.8 ± 8.8 mL/min/kg
same,MRT0-96h,[16]; intravenous (5 mg/kg),17.2 ± 1.68 h
same,MRT0-∞,[16]; intravenous (5 mg/kg),19.0 ± 2.82 h
same,Vd,[16]; intravenous (5 mg/kg),90.9 ± 12.3 L/kg
same,t1/2,[16]; intravenous (5 mg/kg),18.5 ± 3.86 h
same,AUC0-96h,[16]; low dose (5 mg/kg),1350 ± 419 ng·h/mL
same,AUC0-∞,[16]; low dose (5 mg/kg),1390 ± 438 ng·h/mL
same,CL,[16]; low dose (5 mg/kg),65.2 ± 19.8 mL/min/kg
same,Cmax,[16]; low dose (5 mg/kg),58.7 ± 12.7 ng/mL
same,MRT0-96h,[16]; low dose (5 mg/kg),19.2 ± 2.41 h
same,MRT0-∞,[16]; low dose (5 mg/kg),21.5 ± 3.23 h
same,Tmax,[16]; low dose (5 mg/kg),5.00 ± 1.10 h
same,Vd,[16]; low dose (5 mg/kg),93.5 ± 15.9 L/kg
same,t1/2,[16]; low dose (5 mg/kg),17.4 ± 3.52 h
same,AUC0-96h,[16]; medium dose (10 mg/kg),3200 ± 629 ng·h/mL
same,AUC0-∞,[16]; medium dose (10 mg/kg),3300 ± 696 ng·h/mL
same,CL,[16]; medium dose (10 mg/kg),52.5 ± 11.6 mL/min/kg
same,Cmax,[16]; medium dose (10 mg/kg),147 ± 26.6 ng/mL
same,MRT0-96h,[16]; medium dose (10 mg/kg),21.8 ± 2.80 h
same,MRT0-∞,[16]; medium dose (10 mg/kg),24.7 ± 4.71 h
same,Tmax,[16]; medium dose (10 mg/kg),4.50 ± 1.22 h
same,Vd,[16]; medium dose (10 mg/kg),82.8 ± 9.31 L/kg
same,t1/2,[16]; medium dose (10 mg/kg),18.8 ± 3.60 h
same,F (oral bioavailability),[16]; rat,93.8%
same,plasma protein binding rate,[17],97.2±0.266%
same,plasma protein binding rate,[18],92.5±0.331%
same,content at 72 h post-dose as fraction of distribution peak,[19]; adrenal glands,1/8
same,tissue AUC0-72h exposure relative to plasma,[19]; bone marrow,≈ 1.3 times plasma
same,tissue AUC0-72h exposure relative to plasma,"[19]; brain, adipose tissue, muscles",3~9 times plasma
same,tissue AUC0-72h exposure relative to plasma,"[19]; liver, kidneys, ovaries",≈ 100 times plasma
same,time of distribution peak,"[19]; liver, stomach, intestines",0.5 h
same,time of distribution peak,[19]; most tissues,4 h
same,tissue AUC0-72h exposure relative to plasma,"[19]; spleen, lungs, adrenal glands",≈ 200 times plasma
same,time of distribution peak,[19]; testes,24 h
same,content at 72 h post-dose as fraction of distribution peak,[19]; uterus,1/5
same,tissue AUC0-72h exposure relative to plasma,"[19]; uterus, testes, thymus, intestines, thyroid, heart, stomach",20~60 times plasma
same,respiratory function and neurological behavior,[20],did not affect
same,no observed adverse effect level (NOAEL),"[21]; 28 d, Beagle dog",12 mg/kg
same,highest non-severely toxic dose (HNSTD),"[21]; oral, four consecutive weeks",12 mg/kg
same,IC50,[22],165 nM
same,IC50,[23],556 nM
same,IC50,[24],> 10000 nM
same,IC50,[25],446 nM
same,IC50,[26],1360 nM
same,IC50,[27],153 nM
same,IC50,[28],166 nM
same,IC50,[29],> 10000 nM
same,Q-T interval and corrected Q-T interval,[30],mild prolongation
same,number of metabolites found in plasma,[31],4

# Reference: article PMC11868595, “Safety, pharmacokinetics and efficacy of HA121-28 in patients with advanced solid tumors and RET fusion-positive non-small-cell lung cancer: a multicenter, open-label, single-arm phase 1/2 trial” (Signal Transduction and Targeted Therapy, 2025)
